pIC50: −log10 of the molar value. Calls of active or inactive are those of the source. The rule behind the calls is not given here. Peptide text beside a SMILES is read from it. * marks the point of attachment. Cbz = O=C(OCc1ccccc1)*
Key:
K562 = assay: Cytotoxicity against human K562 cells assessed as growth inhibition after 48 hrs by MTT assay; type: functional, cell-based; settings: K562, 48 h
[1] = Cytotoxicity against human fibroblasts assessed as growth inhibition after 48 hrs by MTT assay; type: cell-based; settings: Fibroblast
JIYOYE = assay: Cytotoxicity against human Jijoye cells assessed as growth inhibition after 48 hrs by MTT assay; type: functional, cell-based
Jurkat [2] = assay: Cytotoxicity against human Jurkat cells assessed as growth inhibition after 48 hrs by MTT assay; type: functional, cell-based
SK-OV-3 = assay: Cytotoxicity against human SKOV3 cells assessed as growth inhibition after 48 hrs by MTT assay; type: functional, cell-based; settings: SK-OV-3, 48 h
HeLa = assay: Cytotoxicity against human HeLa cells assessed as growth inhibition after 48 hrs by MTT assay; type: functional, cell-based
SW480 = assay: Cytotoxicity against human SW480 cells assessed as growth inhibition after 48 hrs by MTT assay; type: functional, cell-based; settings: SW480, 48 h
Jurkat [3] = assay: Inhibition of trypsin-like activity of proteasome isolated from human Jurkat cells using Boc-LRR-AMC as substrate assessed as residual activity at 10 uM incubated for 30 mins followed by substrate addition measured for 2 hrs by fluorescence assay relative to control; type: cell-free
Jurkat [4] = assay: Inhibition of chymotrypsin-like activity of proteasome isolated from human Jurkat cells using Suc-LLVY-AMC as substrate assessed as residual activity at 10 uM incubated for 30 mins followed by substrate addition measured for 2 hrs by fluorescence assay relative to control; type: cell-free
Jurkat [5] = assay: Inhibition of trypsin-like activity of proteasome in human Jurkat cells at 50 uM after 30 mins by fluorescence assay; type: cell-based
Jurkat [6] = assay: Cell cycle arrest in human Jurkat cells assessed as accumulation at S phase at 20 uM by propidium iodide staining-based FACS flow cytometric analysis (reference value: 26.91%); type: functional
Jurkat [7] = assay: Inhibition of chymotrypsin-like activity of proteasome isolated from human Jurkat cells using Suc-LLVY-AMC as substrate assessed as residual activity at 50 uM incubated for 30 mins followed by substrate addition measured for 2 hrs by fluorescence assay relative to control; type: cell-free
Jurkat [8] = assay: Inhibition of trypsin-like activity of proteasome isolated from human Jurkat cells using Boc-LRR-AMC as substrate assessed as residual activity at 100 uM incubated for 30 mins followed by substrate addition measured for 2 hrs by fluorescence assay relative to control; type: cell-free
Jurkat [9] = assay: Inhibition of trypsin-like activity of proteasome isolated from human Jurkat cells using Boc-LRR-AMC as substrate assessed as residual activity at 50 uM incubated for 30 mins followed by substrate addition measured for 2 hrs by fluorescence assay relative to control; type: cell-free
Jurkat [10] = assay: Induction of apoptosis in human Jurkat cells assessed as dead cells at 20 uM by propidium iodide/annexin V staining-based FACS flow cytometric analysis (reference value: 0.66%); type: functional
Jurkat [11] = assay: Induction of apoptosis in human Jurkat cells assessed as early apoptotic cells at 20 uM by propidium iodide/annexin V staining-based FACS flow cytometric analysis (reference value: 1.87%); type: functional
Jurkat [12] = assay: Cell cycle arrest in human Jurkat cells assessed as accumulation at G0/G1 phase at 20 uM by propidium iodide staining-based FACS flow cytometric analysis (reference value: 52.59%); type: functional
Jurkat [13] = assay: Induction of apoptosis in human Jurkat cells assessed as caspase 3/7 activation at 20 uM after overnight incubation by luminescence assay; type: functional, cell-based
Jurkat [14] = assay: Cell cycle arrest in human Jurkat cells assessed as accumulation at sub G0/G1 phase at 20 uM by propidium iodide staining-based FACS flow cytometric analysis (reference value: 4.81%); type: functional
Jurkat [15] = assay: Inhibition of chymotrypsin-like activity of proteasome isolated from human Jurkat cells using Suc-LLVY-AMC as substrate assessed as residual activity at 25 uM incubated for 30 mins followed by substrate addition measured for 2 hrs by fluorescence assay relative to control; type: cell-free
Jurkat [16] = assay: Inhibition of chymotrypsin-like activity of proteasome isolated from human Jurkat cells using Suc-LLVY-AMC as substrate assessed as residual activity at 100 uM incubated for 30 mins followed by substrate addition measured for 2 hrs by fluorescence assay relative to control; type: cell-free
Jurkat [17] = assay: Inhibition of proteasome in human Jurkat cells assessed as accumulation of ubiquitinated protein at 50 uM by Western blot analysis; type: cell-based
Jurkat [18] = assay: Inhibition of trypsin-like activity of proteasome isolated from human Jurkat cells using Boc-LRR-AMC as substrate assessed as residual activity at 25 uM incubated for 30 mins followed by substrate addition measured for 2 hrs by fluorescence assay relative to control; type: cell-free
Jurkat [19] = assay: Cell cycle arrest in human Jurkat cells assessed as accumulation at G2/M phase at 20 uM by propidium iodide staining-based FACS flow cytometric analysis (reference value: 16.63%); type: functional
Jurkat [20] = assay: Inhibition of chymotrypsin-like activity of proteasome in human Jurkat cells assessed as residual activity at 50 uM after 30 mins by fluorescence assay relative to control; type: cell-based
Jurkat [21] = assay: Induction of apoptosis in human Jurkat cells assessed as late apoptotic cells at 20 uM by propidium iodide/annexin V staining-based FACS flow cytometric analysis (reference value: 0.37%); type: functional
Jurkat [22] = assay: Cell cycle arrest in human Jurkat cells assessed at 20 uM by propidium iodide staining-based FACS flow cytometric analysis; type: functional

Compound COC(=O)[C@]12CCC(C)(C)C[C@H]1[C@H]1C(=O)C=C3[C@@]4(C)CC=C(B5OC(C)(C)C(C)(C)O5)C(C)(C)[C@@H]4CC[C@@]3(C)[C@]1(C)CC2 has a pIC50 (K562) of less than 4.30, a pIC50 [1] of less than 4.30 and a pIC50 (JIYOYE) of less than 4.30. For the same compound, the pIC50 (Jurkat [2]) was less than 4.30, the pIC50 (SK-OV-3) was less than 4.30 and the pIC50 (HeLa) was less than 4.30. It also gave a pIC50 (SW480) of less than 4.30.
With CC(C)C[C@@H](C=O)NC(=O)[C@H](CC(C)C)NC(=O)[C@H](CC(C)C)NC(=O)OCc1ccccc1 (Cbz-Leu-Leu-Leu-aldehyde) the Activity (Jurkat [3]) was less than 20% and the Activity (Jurkat [4]) was less than 20%.
For COC(=O)[C@]12CCC(C)(C)C[C@H]1[C@H]1/C(=N\O)C[C@@H]3[C@@]4(C)CC=C(B5OC(C)(C)C(C)(C)O5)C(C)(C)[C@@H]4CC[C@@]3(C)[C@]1(C)CC2, the pIC50 (K562) was less than 4.30, the pIC50 [1] was less than 4.30 and the pIC50 (JIYOYE) was less than 4.30. The pIC50 (Jurkat [2]) was less than 4.30, the pIC50 (SK-OV-3) was less than 4.30 and the pIC50 (HeLa) was less than 4.30. The pIC50 (SW480) was less than 4.30.
With COC(=O)[C@]12CCC(C)(C)C[C@H]1C1=CC[C@@H]3[C@@]4(C)CC=C(B5OC(C)(C)C(C)(C)O5)C(C)(C)[C@@H]4CC[C@@]3(C)[C@]1(C)CC2 the pIC50 (K562) was less than 4.30, the pIC50 [1] was less than 4.30 and the pIC50 (JIYOYE) was less than 4.30. For the same compound, the pIC50 (Jurkat [2]) was less than 4.30, the pIC50 (SK-OV-3) was less than 4.30 and the pIC50 (HeLa) was less than 4.30. For the same compound, the pIC50 (SW480) was less than 4.30.
In the case of COC(=O)[C@H](C)NC(=O)[C@]12CCC(C)(C)C[C@H]1C1=CC[C@@H]3[C@@]4(C)CC=C(B5OC(C)(C)C(C)(C)O5)C(C)(C)[C@@H]4CC[C@@]3(C)[C@]1(C)CC2, the pIC50 (K562) was less than 4.30, the pIC50 [1] was less than 4.30 and the pIC50 (JIYOYE) was less than 4.30. For the same compound, the pIC50 (Jurkat [2]) was less than 4.30, the pIC50 (SK-OV-3) was less than 4.30 and the pIC50 (HeLa) was less than 4.30. It also gave a pIC50 (SW480) of less than 4.30.
CC1(C)CC[C@]2(C#N)CC[C@]3(C)C(=CC[C@@H]4[C@@]5(C)CC=C(B6OC(C)(C)C(C)(C)O6)C(C)(C)[C@@H]5CC[C@]43C)[C@@H]2C1 showed a pIC50 (K562) of less than 4.30, a pIC50 [1] of less than 4.30 and a pIC50 (JIYOYE) of less than 4.30. The pIC50 (Jurkat [2]) was less than 4.30, the pIC50 (SK-OV-3) was less than 4.30 and the pIC50 (HeLa) was less than 4.30. The pIC50 (SW480) was less than 4.30.
For COC(=O)[C@]12CCC(C)(C)C[C@H]1[C@H]1C(=O)C[C@@H]3[C@@]4(C)CC=C(B5OC(C)(C)C(C)(C)O5)C(C)(C)[C@@H]4CC[C@@]3(C)[C@]1(C)CC2, the pIC50 (K562) was less than 4.30, the pIC50 [1] was less than 4.30 and the pIC50 (JIYOYE) was less than 4.30. For the same compound, the pIC50 (Jurkat [2]) was less than 4.30, the pIC50 (SK-OV-3) was less than 4.30 and the pIC50 (HeLa) was less than 4.30. It also gave a pIC50 (SW480) of less than 4.30.
For C[C@H](NC(=O)[C@]12CCC(C)(C)C[C@H]1C1=CC[C@@H]3[C@@]4(C)CC=C(B5OC(C)(C)C(C)(C)O5)C(C)(C)[C@@H]4CC[C@@]3(C)[C@]1(C)CC2)C(=O)O, the inhibition (Jurkat [5]) was “Active”, the Activity (Jurkat [6]) was 14.24% and the Activity (Jurkat [7]) was 84.3%. It also gave an Activity (Jurkat [8]) of 50.8%, a pIC50 (K562) of 4.70 and an Activity (Jurkat [9]) of 70.7%. The Activity (Jurkat [10]) was 16.33%, the pIC50 [1] was less than 4.30 and the Activity (Jurkat [11]) was 5.37%. The Activity (Jurkat [12]) was 58.78%, the Activity (Jurkat [13]) was “Active” and the Activity (Jurkat [14]) was 15.82%. For the same compound, the Activity (Jurkat [15]) was 91.7%, the Activity (Jurkat [16]) was 47.2% and the inhibition (Jurkat [17]) was “Active”. The Activity (Jurkat [18]) was 85.1%, the pIC50 (JIYOYE) was 4.71 and the pIC50 (Jurkat [2]) was 4.67. For the same compound, the pIC50 (SK-OV-3) was 4.51, the Activity (Jurkat [19]) was 12.19% and the Activity (Jurkat [20]) was 37%. The pIC50 (HeLa) was 4.52, the Activity (Jurkat [21]) was 13.67% and the pIC50 (SW480) was 4.54.
COC(=O)CNC(=O)[C@]12CCC(C)(C)C[C@H]1C1=CC[C@@H]3[C@@]4(C)CC=C(B5OC(C)(C)C(C)(C)O5)C(C)(C)[C@@H]4CC[C@@]3(C)[C@]1(C)CC2 showed a pIC50 (K562) of less than 4.30, a pIC50 [1] of less than 4.30 and a pIC50 (JIYOYE) of less than 4.30. For the same compound, the pIC50 (Jurkat [2]) was less than 4.30, the pIC50 (SK-OV-3) was less than 4.30 and the pIC50 (HeLa) was less than 4.30. The pIC50 (SW480) was less than 4.30.
With CC1(C)CC[C@]2(C(=O)NCC(=O)O)CC[C@]3(C)C(=CC[C@@H]4[C@@]5(C)CC=C(B6OC(C)(C)C(C)(C)O6)C(C)(C)[C@@H]5CC[C@]43C)[C@@H]2C1 the inhibition (Jurkat [5]) was “Active”, the Activity (Jurkat [6]) was 13.27% and the Activity (Jurkat [7]) was 64%. It also gave an Activity (Jurkat [8]) of 51.4%, a pIC50 (K562) of 4.74 and an Activity (Jurkat [9]) of 84.1%. The Activity (Jurkat [10]) was 19.81%, the pIC50 [1] was less than 4.30 and the Activity (Jurkat [11]) was 3.73%. For the same compound, the Activity (Jurkat [12]) was 82.2%, the Activity (Jurkat [13]) was “Active” and the Activity (Jurkat [14]) was 13.79%. For the same compound, the Activity (Jurkat [15]) was 83.6%, the Activity (Jurkat [16]) was 59.3% and the inhibition (Jurkat [17]) was “Active”. For the same compound, the Activity (Jurkat [18]) was 85.3%, the pIC50 (JIYOYE) was 4.87 and the pIC50 (Jurkat [2]) was 4.81. For the same compound, the pIC50 (SK-OV-3) was 4.81, the Activity (Jurkat [19]) was 10.6% and the Activity (Jurkat [20]) was 25%. For the same compound, the pIC50 (HeLa) was 4.55, the Activity (Jurkat [21]) was 13.22% and the pIC50 (SW480) was 4.75.
With CC1(C)CC[C@]2(C(=O)O)CC[C@]3(C)C(=CC[C@@H]4[C@@]5(C)CC=C(B6OC(C)(C)C(C)(C)O6)C(C)(C)[C@@H]5CC[C@]43C)[C@@H]2C1 the pIC50 (K562) was less than 4.30, the pIC50 [1] was less than 4.30 and the pIC50 (JIYOYE) was less than 4.30. For the same compound, the pIC50 (Jurkat [2]) was less than 4.30, the pIC50 (SK-OV-3) was less than 4.30 and the pIC50 (HeLa) was less than 4.30. For the same compound, the pIC50 (SW480) was less than 4.30.
In the case of CC1(C)CC[C@]2(C(N)=O)CC[C@]3(C)C(=CC[C@@H]4[C@@]5(C)CC=C(B6OC(C)(C)C(C)(C)O6)C(C)(C)[C@@H]5CC[C@]43C)[C@@H]2C1, the Activity (Jurkat [7]) was 92.4%, the Activity (Jurkat [8]) was 72.5% and the pIC50 (K562) was 5.08. For the same compound, the Activity (Jurkat [9]) was 77.9%, the pIC50 [1] was less than 4.30 and the Activity (Jurkat [13]) was “Active”. It also gave an Activity (Jurkat [15]) of 95.8%, an Activity (Jurkat [16]) of 85.6% and an Activity (Jurkat [18]) of 81.6%. For the same compound, the pIC50 (JIYOYE) was 5.08, the Activity (Jurkat [22]) was “inactive” and the pIC50 (Jurkat [2]) was 4.67. For the same compound, the pIC50 (SK-OV-3) was less than 4.30, the pIC50 (HeLa) was 4.46 and the pIC50 (SW480) was less than 4.30.

— ChEMBL document CHEMBL2375265, “Novel oleanolic vinyl boronates: synthesis and antitumor activity” (Eur J Med Chem, 2013)
